In patent publication US9981972B2, “N-hydroxy bicyclic hydantoin carbamates as tools for identification of serine hydrolase targets” (ABIDE THERAPEUTICS, INC., priority 2014, dated 2018):

Key:
Test in all cases: Gel-based competitive ABPP in vitro, mouse brain membrane proteome
Format in all cases: biochemical
[1] = biological target: T1, LYPLA1 (Mus musculus, UniProt P97823)
T1 construct: a complex proteome endogenously expressing LYPLA1/2 was incubated with test compound; from tissue; host or cells: mouse brain, membrane fraction
Method in brief: (§1)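 Mouse brain membrane proteome (1 mg/mL in DPBS) was treated with compound (0.1-100 μM) for 30 min at 37 °C, then labeled with FP-Rh (2 μM final, 30 min, 25 °C). Bands were resolved by SDS-PAGE and scanned in-gel, with inhibition taken from band optical density versus DMSO. Targets counted as active or anti-targets at ≥50% inhibition.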

[2] = biological target: T2, LYPLA2 (Mus musculus, UniProt Q9WTL7)
T2 construct: a complex proteome endogenously expressing LYPLA1/2 was incubated with test compound; from tissue; host or cells: mouse brain, membrane fraction
Method in brief: as §1

[3] = biological target: T3, PLA2G7 (Mus musculus, UniProt Q60963); details: mouse brain (mem) proteome
T3 construct: from tissue; host or cells: mouse brain, membrane fraction
T3 sequence (Q60963 22-440): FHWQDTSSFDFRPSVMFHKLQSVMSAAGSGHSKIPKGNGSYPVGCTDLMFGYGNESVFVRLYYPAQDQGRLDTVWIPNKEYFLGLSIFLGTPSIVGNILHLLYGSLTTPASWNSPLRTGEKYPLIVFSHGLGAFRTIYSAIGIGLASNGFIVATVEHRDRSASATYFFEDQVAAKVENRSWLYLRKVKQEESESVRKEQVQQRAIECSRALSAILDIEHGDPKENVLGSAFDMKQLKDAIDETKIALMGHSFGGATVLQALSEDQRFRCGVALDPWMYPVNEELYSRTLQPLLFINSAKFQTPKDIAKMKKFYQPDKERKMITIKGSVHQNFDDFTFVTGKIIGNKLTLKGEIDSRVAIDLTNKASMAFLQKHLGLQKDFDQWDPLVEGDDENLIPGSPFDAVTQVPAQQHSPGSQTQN
Procedure: (§2) Assay Overview: The purpose of this assay was to determine whether test compounds can inhibit LYPLA1 and LYPLA2 in a complex proteomic lysate and to assess anti-target inhibition using a competitive activity-based proteomic profiling (ABPP) assay. In this assay, a complex proteome endogenously expressing LYPLA1/2 was incubated with test compound followed by reaction with a rhodamine-conjugated fluorophosphonate (FP-Rh) serine-hydrolase specific activity-based probe. The reaction products were separated by SDS-PAGE and visualized in-gel using a flatbed fluorescence scanner. The percentage activity remaining was determined by measuring the integrated optical density of the bands. […] Percent inhibition was calculated relative to a DMSO (no compound) control.
(§3) Protocol Summary: Mouse brain membrane proteome (50 μL reaction volume, 1 mg/mL in DPBS) was treated with 0.1-100 μM test compound (1 μL of a 50× stock in DMSO) for 30 minutes at 37° C. FP-Rh (1 μL of 50× stock in DMSO, Thermo #88318) was added to a final concentration of 2 μM. The reactions were incubated for 30 minutes at 25° C., quenched with 16 μL 4×SDS-PAGE loading buffer (reducing), separated by SDS-PAGE and visualized by in-gel fluorescent scanning. The percentage activity remaining was determined by measuring the integrated optical density of the bands relative to a DMSO-only (no compound) control. Assay Cutoff: Compounds with ≥50% inhibition of targets at 1 μM test compound concentration were considered active.

[4] = biological target: T4, ABHD3 (Mus musculus, UniProt Q91ZH7); details: mouse brain (mem) proteome
T4 construct: from tissue; host or cells: mouse brain, membrane fraction
T4 sequence (Q91ZH7 1-411): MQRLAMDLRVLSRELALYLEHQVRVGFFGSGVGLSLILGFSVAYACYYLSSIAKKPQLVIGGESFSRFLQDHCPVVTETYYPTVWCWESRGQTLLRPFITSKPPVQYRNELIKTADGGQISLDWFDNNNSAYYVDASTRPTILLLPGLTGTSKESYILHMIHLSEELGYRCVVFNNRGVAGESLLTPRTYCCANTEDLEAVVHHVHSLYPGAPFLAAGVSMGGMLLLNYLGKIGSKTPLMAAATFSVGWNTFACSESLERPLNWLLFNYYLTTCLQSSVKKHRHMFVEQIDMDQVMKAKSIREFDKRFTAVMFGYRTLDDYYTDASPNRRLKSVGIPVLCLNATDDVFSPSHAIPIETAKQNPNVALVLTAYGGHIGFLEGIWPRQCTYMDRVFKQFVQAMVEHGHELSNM
Procedure: as §2, §3

[5] = biological target: T5, ABHD12 (Mus musculus, UniProt Q99LR1); details: mouse brain (mem) proteome
T5 construct: from tissue; host or cells: mouse brain, membrane fraction
T5 sequence (Q99LR1 1-398): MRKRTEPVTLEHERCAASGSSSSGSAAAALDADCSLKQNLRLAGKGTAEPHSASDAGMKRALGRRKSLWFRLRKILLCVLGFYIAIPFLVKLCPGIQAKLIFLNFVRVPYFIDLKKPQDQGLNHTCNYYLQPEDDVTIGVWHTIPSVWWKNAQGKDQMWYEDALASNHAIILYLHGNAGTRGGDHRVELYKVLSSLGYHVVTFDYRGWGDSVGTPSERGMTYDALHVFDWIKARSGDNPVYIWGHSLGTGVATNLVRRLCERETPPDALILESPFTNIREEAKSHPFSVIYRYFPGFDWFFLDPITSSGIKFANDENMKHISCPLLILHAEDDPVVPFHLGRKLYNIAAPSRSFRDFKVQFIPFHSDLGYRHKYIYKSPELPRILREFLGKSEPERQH
Procedure: as §2, §3

[6] = 20 μM, mouse brain (mem) proteome
[7] = 1 μM, mouse brain (mem) proteome

T2 sequence (Q9WTL7 whole entry): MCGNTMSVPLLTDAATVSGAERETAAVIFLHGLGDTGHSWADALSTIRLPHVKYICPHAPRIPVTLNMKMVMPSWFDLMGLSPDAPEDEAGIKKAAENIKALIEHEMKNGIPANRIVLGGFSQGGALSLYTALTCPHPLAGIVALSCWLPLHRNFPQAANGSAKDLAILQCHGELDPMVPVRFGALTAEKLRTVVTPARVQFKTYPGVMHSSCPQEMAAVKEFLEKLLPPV
T1 sequence (P97823 whole entry): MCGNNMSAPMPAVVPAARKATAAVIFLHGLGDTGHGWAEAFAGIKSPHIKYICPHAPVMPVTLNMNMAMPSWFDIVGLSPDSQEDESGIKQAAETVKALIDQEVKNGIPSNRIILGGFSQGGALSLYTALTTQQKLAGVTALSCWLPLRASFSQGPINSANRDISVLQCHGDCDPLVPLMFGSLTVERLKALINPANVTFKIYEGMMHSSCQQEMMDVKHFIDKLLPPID

ABHD3 in vitro enzyme activity, % @ 10 μM [4] | ABHD12 in vitro enzyme activity, % @ 10 μM [5] | LYPLA1 in vitro enzyme activity, % @ 10 μM ([1]; mouse brain (mem) proteome) | LYPLA2 in vitro enzyme activity, % @ 10 μM ([2]; mouse brain (mem) proteome) | PLA2G7 in vitro enzyme activity, % @ 1 μM [3] | Compound | also measured
0% @ | 0% @ | 0% @ | 0% @ | 100% @ | COc1ccc(N2CCN(C(=O)ON3C(=O)[C@H]4CN(CC5CCN(Cc6ccccc6)CC5)CCN4C3=O)CC2)cc1 [Compound 43, (R)-7-((1-benzylpiperidin-4-yl)methyl)-1,3-dioxo-hexahydroimidazo[1,5-a]pyrazin-2(3H)-yl 4-(4-methoxyphenyl)piperazine-1-carboxylate] | 
0% @ | 0% @ | 0% @ | 0% @ | 100% @ | C#CCOc1ccc(N2CCN(C(=O)ON3C(=O)[C@@H]4CN(Cc5ccc(Oc6ccccc6)cc5)CCN4C3=O)CC2)cc1 [Compound 44, (S)-1,3-dioxo-7-(4-phenoxybenzyl)-hexahydroimidazo[1,5-a]pyrazin-2(3H)-yl 4-(4-(prop-2-ynyloxy)phenyl)piperazine-1-carboxylate] | 

Continued, compound first:

Compound | ABHD3 in vitro enzyme activity, % @ 10 μM [4] | ABHD12 in vitro enzyme activity, % @ 10 μM [5] | LYPLA1 in vitro enzyme activity, % @ 10 μM ([1]; mouse brain (mem) proteome) | LYPLA2 in vitro enzyme activity, % @ 10 μM ([2]; mouse brain (mem) proteome) | PLA2G7 in vitro enzyme activity, % @ 1 μM [3] | also measured
O=C(ON1C(=O)C2CN(C(=O)N3CCOCC3)CCN2C1=O)N1CCC(CCc2ccc(Cl)cc2)CC1 (centres unmarked) [Compound 1, 7-(morpholine-4-carbonyl)-1,3-dioxohexahydroimidazo[1,5-a]pyrazin-2(3H)-yl 4-(4-chloro-phenethyl)piperidine-1-carboxylate] |  |  |  |  |  | inhibition at 1 µM ([1]; 1 μM compound, 30 min, one replicate, read-out: LYPLA1 % INH 1 μM): 100%; inhibition at 10 µM ([1]; 10 μM compound, 30 min, one replicate, read-out: LYPLA1 % INH 10 μM): 100%; inhibition at 100 µM ([1]; 100 μM compound, 30 min, one replicate, read-out: LYPLA1 % INH 100 μM): 100%; inhibition at 1 µM ([2]; 1 μM compound, 30 min, one replicate, read-out: LYPLA2 % INH 1 μM): 100%; inhibition at 10 µM ([2]; 10 μM compound, 30 min, one replicate, read-out: LYPLA2 % INH 10 μM): 100%; inhibition at 100 µM ([2]; 100 μM compound, 30 min, one replicate, read-out: LYPLA2 % INH 100 μM): 100%
O=C(ON1C(=O)C2CN(Cc3ccc(Oc4ccccc4)cc3)CCN2C1=O)N1CCC(c2ccccc2)CC1 (centres unmarked) [Compound 38, 1,3-dioxo-7-(4-phenoxybenzyl)hexahydroimidazo[1,5-a]pyrazin-2(3H)-yl 4-phenylpiperidine-1-carboxylate] |  |  |  |  |  | LYPLA1 in vitro enzyme activity, % @ 20 μM [1, 6]: 0% @; LYPLA2 in vitro enzyme activity, % @ 20 μM [2, 6]: 0% @
O=C(ON1C(=O)[C@@H]2CN(Cc3ccc(Br)cc3)CCN2C1=O)N1CCC(CCc2ccc(Cl)cc2)CC1 [Compound 40, (S)-7-(4-bromobenzyl)-1,3-dioxohexahydroimidazo[1,5-a]pyrazin-2(3H)-yl4-(4-chlorophenethyl)piperidine-1-carboxylate] | 0% @ | 0% @ | 50% @ | 50% @ |  | PLA2G7 in vitro enzyme activity, % @ 10 μM [3]: 100% @
O=C(ON1C(=O)[C@@H]2CN(C(=O)N3CCOCC3)CCN2C1=O)N1CCN(CCc2ccc(Cl)cc2)CC1 [Compound 41, (S)-7-(morpholine-4-carbonyl)-1,3-dioxo-hexahydroimidazo[1,5-a]pyrazin-2(3H)-yl 4-(4-chlorophenethyl)piperazine-1-carboxylate] | 0% @ | 0% @ | 100% @ | 100% @ |  | PLA2G7 in vitro enzyme activity, % @ 10 μM [3]: 0% @
COc1ccc(N2CCN(C(=O)ON3C(=O)[C@@H]4CN(CC5CCN(Cc6ccccc6)CC5)CCN4C3=O)CC2)cc1 [Compound 42, (S)-7-((1-benzylpiperidin-4-yl)methyl)-1,3-dioxo-hexahydroimidazo[1,5-a]pyrazin-2(3H)-yl 4-(4-methoxyphenyl)piperazine-1-carboxylate] | 0% @ | 0% @ | 50% @ | 100% @ | 100% @ | 
C#CCOc1ccc(N2CCN(C(=O)ON3C(=O)[C@H]4CN(Cc5ccc(Oc6ccccc6)cc5)CCN4C3=O)CC2)cc1 [Compound 45, (R)-1,3-dioxo-7-(4-phenoxybenzyl)-hexahydroimidazo[1,5-a]pyrazin-2(3H)-yl 4-(4-(prop-2-ynyloxy)phenyl)piperazine-1-carboxylate] | 75% @ | 0% @ | 0% @ | 0% @ | 100% @ | 
C#CCOc1ccc(N2CCN(C(=O)ON3C(=O)[C@@H]4CN(CC5CCN(Cc6ccccc6)CC5)CCN4C3=O)CC2)cc1 [Compound 46, (S)-7-((1-benzylpiperidin-4-yl)methyl)-1,3-dioxo-hexahydroimidazo[1,5-a]pyrazin-2(3H)-yl 4-(4-(prop-2-ynyloxy)phenyl)piperazine-1-carboxylate] | 0% @ | 0% @ | 50% @ | 50% @ | 100% @ | 
C#CCOc1ccc(N2CCN(C(=O)ON3C(=O)[C@H]4CN(CC5CCN(Cc6ccccc6)CC5)CCN4C3=O)CC2)cc1 [Compound 47, (R)-7-((1-benzylpiperidin-4-yl)methyl)-1,3-dioxo-hexahydroimidazo[1,5-a]pyrazin-2(3H)-yl 4-(4-(prop-2-ynyloxy)phenyl)piperazine-1-carboxylate] | 0% @ | 0% @ | 0% @ | 0% @ | 100% @ | 
C#Cc1ccc(CCC2CCN(C(=O)ON3C(=O)[C@@H]4CN(C(=O)N5CCOCC5)CCN4C3=O)CC2)cc1 [Compound 48, (S)-7-(morpholine-4-carbonyl)-1,3-dioxo-hexahydroimidazo[1,5-a]pyrazin-2(3H)-yl 4-(4-ethynylphenethyl)piperidine-1-carboxylate] | 0% @ | 50% @ |  |  |  | PLA2G7 in vitro enzyme activity, % @ 10 μM [3]: 75% @; LYPLA1 in vitro enzyme activity, % @ 1 μM [1, 7]: 75% @; LYPLA2 in vitro enzyme activity, % @ 1 μM [2, 7]: 75% @
